# Measured values published in patent US20190380985A1, “Composition Containing N-acetyldiaminobutyric Acid” (bitop AG, priority 2016, published 2019).
# What was measured:
# [1] = tested on: HaCaT cells; test: ATP assay on aged keratinocytes (cell metabolism); format: cell-based, human; details: 5 h incubation in PBS, compared to PBS only (0%), FIG. 7
# Source text: HaCaT cells (a keratinocyte cell line) were placed on a 96-well microtiter plate and a cell culture was allowed to form for a period of at least one week until cell growth was stopped by contact inhibition. Following this, the cells were cultivated for another week to simulate the ageing process. The cell culture medium was changed over to PBS with the addition of NADA and reference substances such as glucosylglycerol, ectoine (28Extremoin) and Myramaze®, a commercially available anti-aging product. The cells were incubated for a period of 5 hours. Finally, an ATP assay was prepared, whereby a high ATP synthesis indicates a high degree of metabolism and thus attests to cell vitality. The results can be seen from FIG. 7.
# [2] = tested on: SIRC cell line; test: Matsuo moisturizing assay (calcein AM viability after air-drying); format: cell-based, rabbit; details: 25 mM; 15 min treatment, 45 min air-drying; FIG. 1
# Procedure: The skin/mucosal moisturizing effect of N-acetyldiaminobutyric acid was investigated using a Matsuo moisturizing assay (Matsuo, Br J. Opthalmol. 85: 610-612). An SIRC cell line isolated from rabbit eyes was used for this purpose. For the experiments, 30,000 cells were placed in each well of a 96 well microtiter plate. After approx. 24 h a complete monolayer had formed in each case. The supernatant was then removed and 100 μl of the test substances diluted in PBS (phosphate buffered salt solution) were applied to the cells for 15 min. Then, the supernatant was removed again. At this stage, the cells were not washed with PBS. Under sterile conditions the cells were air-dried over a period of 45 min. Following this, the cells were washed three times with PBS. To determine cell viability calcein AM staining (calcein-acetoxymethyl ester) was used. Calcein is a fluorescent dye. After the transport of calcein AM into the living cell, the ester groups were cleaved by esterases of the cell resulting in the formation of calcein causing a strongly green fluorescent complex to be formed with calcium ions present in the cell. […] In turn, a high cell viability attests to good wetting properties of the test substances.
# The result is shown in FIG. 1 in comparison to the effect of ectoine and hyaluronic acid. […]
# [3] = tested on: HaCaT cells; test: UV protection test via TEER assay; format: cell-based, human; details: 100 mM, overnight preincubation, 45 min UV-B, 24 h later; FIG. 2
# Source text: A characteristic feature of epithelial as well as endothelial cell layers is the formation of intercellular connections leading to a dense cell barrier separating the basolateral (abluminal) side from the apical (luminal) side. The cell layers form selectively permeable interfaces between different compartments, in this way controlling the diffusion in intercellular space as well as intracellular transport processes. This is ensured by tight junctions (paracellular barriers in the intercellular space). The integrity of these barriers is determined by the so-called TEER method (transepithelial/transendothelial electrical resistance). A defined DC voltage is applied to two electrodes on both sides of the cell layer. The flowing current is measured, which yields the respective resistance results according to Ohm's law.
# HaCaT cells were used, a human keratinocyte cell line. These were applied to PET membranes (“ThinCerts®”). It was waited until the cells had formed a complete and intact monolayer. […]
# In order to accomplish a closer investigation of the protective effect of membranes stabilized by N-acetyldiaminobutyric acid against UV radiation, keratinocytes were incubated overnight in a cell culture medium with PBS, NADA (50 mM and 100 mM) and other compounds. […] The cells were incubated for another 24 hours and the TEER values were determined. […]
# [4] = tested on: Phenion skin model; test: UV protection test using LDH assay on full thickness skin model; format: cell-based; details: 4 h incubation, compared with PBS, FIG. 3
# Procedure: In order to further evaluate the UV, protection effect of NADA, a full thickness skin model of Henkel (Phenion skin, model) was used. This is based on a bovine collagen structure, which is morphologically equivalent to human skin and thus allows examinations to be easily carried out. The Phenion skin model was incubated with the test substances for 4 hours. These were applied directly to the top surface. Subsequently, the Phenion skin model was exposed to UV-B radiation for 2 hours. […] The skin model was then incubated for another 24 hours and the LDH (lactate dehydrogenase) value was determined, which is a measure of the degree of damage caused to the cells.
# [5] = tested on: claudin-1; test: Claudin-1 specific ELISA after heat stress (tight junctions); format: cell-based, human; details: 6 h pretreatment 10-175 mM, 44° C. 30 min, FIG. 8
# Source text: The examination focused on the upregulation of claudins, membrane proteins as constituents of tights junctions, which close off the gaps between the cells of the epithelium so that a barrier is formed. This barrier controls the penetration of molecules via the epithelium. Specifically, the pore occluding claudin-1 was examined. An increased expression of claudin-1 leads to higher imperviousness of the epithelial membrane and increased transepithelial electrical resistance (TEER). The permeability is thus reduced.
# The epithelial cell line (HaCaT) used for the experiment was cultivated in wells on a microtiter plate until a closed cell monolayer had developed. Subsequently, the cells were pretreated with NADA for 6 hours in the cell culture medium (10, 25, 50, 75, 100 and 175 mM). The cells were then suddenly exposed to a temperature of 44° C. for a period of 30 min. before being kept at 37° C. for another 24 and 48 hours respectively. The cells were harvested and the lysate was analyzed using a claudin-1 specific ELISA (enzyme-linked immunosorbent assay). The results can be seen from FIG. 8.
# [6] = tested on: LLC-PK1 cell line; test: Membrane stabilization, calcein AM assay, LLC-PK1; format: cell-based; details: LLC-PK1 cells; FIG. 6
# [7] = tested on: HaCaT cells; test: IR protection test using LDH assay; format: cell-based, human; details: 5 h preincubation, 44° C. for 30 min, 60 h at 37° C., FIG. 4; for liberation of LDH (protection against heat/IR): compared to untreated cells
# Source text: Infrared (IR) radiation brings about an increase in skin temperature, which is associated with an increase in the number of free radicals and increased expression of heat shock inducing metalloproteases (MMP). A permanent exposure to IR radiation may result in an increase in cell death rate through apoptosis. In order to determine the potential of NADA and, for comparative purposes, ectoine on eukaryotic cells regarding the protection against heat and IR radiation, HaCaT cells (human keratinocyte cell line) were applied to 96 wells of a microtiter plate. After a uniform cell layer had formed, the test substances were applied to the medium and the cells were incubated for 5 hours at a temperature of 37° C. Following preincubation, the cells were exposed to a temperature of 44° C. for 30 min. The cells were then incubated at 37° C. for a further 60 hours.
# [8] = tested on: TR146 cell line; test: Membrane stabilization, calcein AM assay, TR146; format: cell-based, human; details: different concentrations, compared to PBS only; FIG. 5
# Procedure: This is a buccal human cell line of oral mucosa cells. The cells were placed in a microtiter plate having 96 wells. As soon as confluence was reached, the cells were washed with PBS and provided with different concentrations of N-acetyldiaminobutyric acid. The negative control contained only PBS, the positive control cDPG (cyclic 2,3-diphosphoglycerate). Following incubation, the cells were again washed with PBS and incubated with 5 μM of calcein AM for a period of 45 min. The hydrolysis of calcein AM, which itself is non-fluorescent, by intracellular esterases produces calcein, a hydrophilic, highly fluorescent compound that is retained in the cytoplasm of the cells. Accordingly, high fluorescence is indicative of high cell viability.
structure (smiles),measurement,setting,value
"CC(=O)NCCC(N)C(=O)O (stereo not drawn) [NADA, N-acetyldiaminobutyric acid]",ATP activity (cell metabolism),[1],reactivation of aged keratinocytes
same,viability of the cells and thus the humidification after drying of the cells,[2],comparable results to ectoine
same,change of the TEER value after UV-B radiation,[3],significant protection of the cell membrane
same,LDH value after UV exposure (UV protection),"[4]; 2 h UV-B, 24 h later",shows UV protection properties
same,LDH value before UV exposure,[4]; before UV-B,approximately the same for PBS and NADA
same,expression of claudin-1,[5]; then 24 hours at 37° C.,distinct increase in the expression of claudin-1
same,expression of claudin-1,[5]; then 48 hours at 37° C.,distinct increase in the expression of claudin-1
same,calcein fluorescence (membrane stabilizing effect),[6],membrane stabilizing effect
same,protection against IR radiation relative to ectoine,[7],more effective than ectoine
same,liberation of LDH (protection against heat/IR),[7],offer protection against intense IR radiation
same,calcein fluorescence (stabilization of epithelial cells),[8],"significant, concentration-dependent stabilization of the epithelial cells"
"CC1=NC(C(=O)O)CCN1 (stereo not drawn) [ectoine, 2-methyl-1,4,5,6-tetrahydropyrimidine-4-carboxylic acid, reference compound]",liberation of LDH (protection against heat/IR),[7],offer protection against intense IR radiation
